Test [1] deals with HIV. As to conditions: cited from earlier work. The source says: It has been proposed that this chemotactic signalling might play a role during HIV infection in vivo, possibly by recruiting susceptible T-cells to sites of viral replication. In other retroviruses envelope/receptor interactions are known to be mitogenic and this may facilitate nuclear translocation and integration of the provirus. In HIV, however, it is not known whether the ability to productively engage the chemokine receptors in this way plays any direct role in acute viral entry and subsequent productive infection of the target cell. […] Since BSCIs, such as Peptide 3, ...

Test [2] concerns Gi-mediated signalling through chemokine receptors. The following applies: ref [24]; cited from earlier work. The source says:
(§1) It has been proposed that this chemotactic signalling might play a role during HIV infection in vivo, possibly by recruiting susceptible T-cells to sites of viral replication. In other retroviruses envelope/receptor interactions are known to be mitogenic and this may facilitate nuclear translocation and integration of the provirus. In HIV, however, it is not known whether the ability to productively engage the chemokine receptors in this way plays any direct role in acute viral entry and subsequent productive infection of the target cell.

In test [3] the test system is HIV (IIIb). The test can be described thus: HIV (IIIb) replication in Jurkat T-cells, supernatant reverse transcriptase activity. Format: cell-based. As to conditions: HIV-1 IIIb, Jurkat; SDF1α 100 ng/ml; two weeks; average of six separate experiments. The method, then: HIV infection of Jurkat T-cells using the laboratory-adapted T-tropic isolate IIIb was monitored using two different assays. Firstly, Jurkat T-cells in 96-well plates were pre-treated with either Peptide 3, vehicle (as a negative control) or SDF1α (as a positive control) for 4 hours, then exposed to HIV virus (10^6 TCID50) and pulsed at 2–3 day intervals with Peptide 3, SDF1α or medium alone as appropriate. After two weeks in culture, the extent of viral infection was assayed by measuring the reverse transcriptase activity in the supernatant, as a measure of viral replication in the culture In six separate experiments, Peptide 3 (100 μM) had no effect on virus replication following HIV exposure (Fig 3a), while SDF1α inhibited reverse transcriptase activity by an average of 75%. No effect was seen on cell viability under any of the treatment conditions.
HIV-1 stocks were prepared in the following manner. HIV-1 IIIb (provided by the MRC AIDS Reagent Programme) was used to infect Jurkat T cells and the progression of infection was monitored using the reverse transcriptase assay for 10–14 days. […] Stocks of HIV-1 MN strain were prepared in a similar manner, except that H9 T cells were used and the progression of infection was monitored by immunofluoresence (because of the low RT activity) in this strain. […]

Test [4] concerns HIV (IIIb). The test can be described thus: HIV (IIIb) infection of Jurkat T-cells, p24gag immunofluorescence. Format: cell-based. As to conditions: SDF1α 100 ng/ml, approximately 48 h after infection, 12 fields of view from each of two wells. The method, then:
HIV infection of Jurkat T-cells was also monitored by high sensitivity quantitative immunofluoresence detection of viral p24^gag expression. Jurkat cells were infected with HIV in the presence or absence of Peptide 3 (100 μM) or SDF1α (100 ng/ml) as described above. Approximately 48 h after infection, the cells were attached to glass slides using a cytospin and then fixed by immersion in ice-cold 70% ethanol for 90 seconds. Expression of p24^gag was determined using quantitative immunofluoresence as previously described, except that the primary antibody was post-fixed to the section using paraformaldehyde to increase the sensitivity of the technique (see Methods). Viral infectivity was expressed as the number of cells stained for p24^gag expressed as a proportion of the total number of cells (detected using Hoechst 33342 nuclear dye). […]
Jurkat cells following HIV infection were attached to 8-well chamber slides (Becton-Dickinson) by spinning the slides using a plate rotor in a Labofuge centrifuge (Heraeus) at 3,000 × g for 5 minutes. […] A threshold was then applied to each image which was the lowest threhold that detected <1% of the pixels of an image of uninfected cells stained under identical conditions. The number of objects exceeding this threshold in each field of view were counted. […]

Test [5] deals with HIV strain MN. Put plainly: HIV (MN) infection of THP-1 cells, p24gag immunofluorescence. Format: cell-based, HIV-1. The following applies: HIV strain MN; Peptide 3 100 μM, MIP1α 100 ng/ml, SDF1α 100 ng/ml; 72 h; p24gag immunofluorescence. The method, then:
However, it was possible to assess HIV infectivity of THP-1 cells using high sensitivity immunofluorescent detection of p24^gag. THP-1 cells were differentiated with hydrocortisone and PMA, then treated with TNFα, resulting in adherent monolayers on glass chamber slides. The THP-1 cells were then treated with either Peptide 3 (100 μM), MIP1α (100 ng/ml) or SDF1α (100 ng/ml) as for the Jurkat cells. THP-1 cells were infected with HIV strain MN at a concentration previously validated to produce easily detectable infection and grown for 72 h prior to fixation and staining for p24^gag. In contrast to the findings with HIV strain IIIb infection of Jurkat T cells, Peptide 3 inhibited infection of THP-1 cells by more than 80% (Fig 3c), very similar to the effect of MIP1α.
THP-1 cells were differentiated prior to infection with hydrocortisone and PMA in 8-well chamber slides. Sixteen hours prior to infection, TNFα was added (100 ng/ml). Twelve hours later, the medium was aspirated and replaced with fresh medium containing the test peptides or chemokines as appropriate. After a further four hours, virus from the frozen stocks was adeed to the cells, which were the processed for immunofluoresence between 28 h and 72 h after infection.
Jurkat cells following HIV infection were attached to 8-well chamber slides (Becton-Dickinson) by spinning the slides using a plate rotor in a Labofuge centrifuge (Heraeus) at 3,000 × g for 5 minutes. Attached Jurkat cells or THP-1 cells were then fixed by dipping the slides into ice-cold 70% ethanol for 90 seconds. Non-specific binding was blocked by incubation with 3% fatty acid-free BSA in TBS for 1 hour at room temprature. Cells were incubated with the mouse monoclonal anti-HIV-1 p24^gag antibody EH12E1 (ref 38;AIDS Reagent Program, NIBSC) at 10 μg/ml in 3% BSA in TBS at room temperature overnight. Unbound antibody was removed with 3 × 3 min washes in PBS, and bound antibody was then fixed to the slide by incubation with 3.8% phosphate buffered formalin pH7.2 for 10 mins at room temperature, followed by 3 further 3 min washes in PBS. Bound antibody was visualised using donkey anti-mouse IgG FITC conjugate (715-095-150; Jackson Immunoresearch) at 30 μg/ml in 3% BSA/TBS + 1 ng/ml Hoescht 33342 for 6 hours at room temperature. Twelve fields of view (100× magnification) were captured from each well of the chamber slide using an Olympus Provis AX electronic microscope connected to a Power Macintosh 8500, running OpenLab image analysis software (Improvision), under both FITC illumination conditions (NIBA filter block; λex = 470–490 nm, dichroic mirror = 505 nm, λem = 515–550 nm) and UV illumination conditions (Chroma 31000; λex = 340–380 nm, dichroic mirror = 400 nm, λem = 435–485 nm). Images were acquired with a Hamamatsu C4742-05 monochrome digital camera with 10-bit depth in a 1280-1024 pixel field connected to a DIG Snapper frame grabber. The exposure time, amplifier gain and offset values were controlled by the OpenLab software and were held constant throughout the experiment. A background (an image captured without a slide under the objective) was digitally subtracted from every image. A threshold was then applied to each image which was the lowest threhold that detected <1% of the pixels of an image of uninfected cells stained under identical conditions. The number of objects exceeding this threshold in each field of view were counted. […]

For test [6], the target named is T1, CXCR4 (Homo sapiens, UniProt P61073).
T1 construct: CXCR4, which is expressed on both THP-1 and Jurkat cells, but at higher levels on the T-cell line; endogenous in cells; host or cells: Jurkat T-cells (whole cells, 10^6 per well, 4°C)
The test can be described thus: Specific binding of biotinylated gp120:V3(IIIb) peptide to Jurkat cells. As to conditions: 100 μM biotinylated gp120:V3(IIIb); various concentrations of inhibitor; 10^6 cells in 100 μl, 4°C; triplicate.

Test [7] has as its system SDF-1α induced chemotaxis. Put plainly: SDF-1α induced chemotaxis (ChemoTx transwell). As to conditions: 100 ng/ml SDF1α; various concentrations of inhibitor in both compartments; 5 × 10^4 cells per well; 2 h, 37°C; MTT; triplicate. Format: cell-based. The method, then:
Figure 2 Effect of Peptide 3 on gp120:V3 loop peptide binding to cells. (a) The binding of 100 μM N-terminal biotinylated gp120:V3(IIIb) to THP-1 cells was measured in the presence of various concentrations of peptide 3. […] (b) Chemotaxis in response to 100 ng/ml SDF1α was measured in the presence of various concentrations of peptide 3. […] (e) As for (a) except that the effect of Peptide 3 on the binding of gp120:V3(BaL) to THP-1 cells was determined. (f) As for (b) except that the effect of Peptide 3 on chemotaxis induced by 25 ng/ml MIP1α was determined. All binding reactions were performed with 10^6 cells in 100 μl of binding medium at 4°C. Chemotaxis assays were performed with 5 × 10^4 cells per well. Values are mean ± SEM of triplicate determinations.
Chemotaxis experiments were performed essentially as previously described, using the ChemoTx disposable 96-well transwell migration plates, with PVP-free membrane (6 μm pore size). Chemoattractant (lower compartment) and cells upper compartment) were suspended in Gey's Balanced salt solution + 1 mg/ml BSA. […] Migration was allowed to proceed for 2 hours at 37°C. […] Each condition was determined in triplicate, and the number of cells migrating in the absence of chemoattractant was subtracted to determine the chemokine-dependent chemotaxis which was reported.

Test [8] relates to chemokine-receptor-induced ERK activity. As to conditions: MEK inhibitor; ref [25]; cited from earlier work.
From the text: as §1

We go through five molecules from PMC1082716, “Blockade of chemokine-induced signalling inhibits CCR5-dependent HIV infection in vitro without blocking gp120/CCR5 interaction” (Retrovirology, 2005).

T1 sequence (P61073 whole entry): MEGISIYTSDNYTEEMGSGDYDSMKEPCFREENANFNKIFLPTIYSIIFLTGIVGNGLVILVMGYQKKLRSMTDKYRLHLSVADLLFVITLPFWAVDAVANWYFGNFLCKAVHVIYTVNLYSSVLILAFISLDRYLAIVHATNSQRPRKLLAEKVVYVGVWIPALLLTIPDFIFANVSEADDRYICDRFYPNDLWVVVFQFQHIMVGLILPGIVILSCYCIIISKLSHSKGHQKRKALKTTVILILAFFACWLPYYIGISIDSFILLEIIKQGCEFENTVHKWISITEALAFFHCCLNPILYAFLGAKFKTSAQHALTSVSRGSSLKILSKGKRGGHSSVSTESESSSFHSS

As to pertussis toxin, the “Effect on cellular infection with HIV in vitro” value in test [1] (ref [24] (Guntermann), [25] (Montes; similar results)) is recorded as “block cellular infection with HIV in vitro”. Further, the “Effect on Gi-mediated signalling through chemokine receptors” value in test [2] is on record as “blocks”.

Take SDF1α [reference compound]: in test [3], the “Inhibition of reverse transcriptase activity” value came to 75%. The “Inhibition of viral infectivity (p24gag)” value in test [4] is “more than 80%”. Moreover, the “Effect on HIV infection of THP-1 cells (in words)” value in test [5] is listed as “no statistically significant effect”.

Regarding `c1cc(CN2CCCNCCNCCCNCC2)ccc1CN1CCCNCCNCCCNCC1` [AMD3100, reference compound], the “Effect on binding of gp120:V3(IIIb) to Jurkat cells” value in test [6] is “blocked”. In addition, the “Effect on SDF-1α induced chemotaxis” value in test [7] is “blocked”.

`N#CC(=C(/N)Sc1ccccc1N)/C(C#N)=C(/N)Sc1ccccc1N` [Peptide U0126]: the “Effect on HIV infection in vitro” value in test [1] (MEK inhibitor, ref [25]) is “block”. Moreover, the “Effect on chemokine-receptor-induced ERK activity” value in test [8] is “block”.

B1: MIP1α: chemokine used at 100 ng/ml (protein, UniProt P10147 24-92, looked up)
C-C motif chemokine 3: SLAADTPTACCFSYTSRQIPQNFIADYFETSSQCSKPGVIFLTKRSRQVCADPSEEWVQKYVSDLELSA
For B1, in test [5], the “Effect on HIV infection of THP-1 cells (in words)” value is recorded as “very similar”.
